In US9624167B2, “N-(4-hydroxy-4-methyl-cyclohexyl)-4-phenyl-benzenesulfonamides and N-(4-hydroxy-4-methyl-cyclohexyl)-4-(2-pyridyl)benzenesulfonamides and their therapeutic use” (PIMCO 2664 LIMITED, priority 2013, dated 2017):
Where two headings read alike, the source gives them in different places.

Experiments:
J774 macrophages [1] = experiment: Resazurin Macrophage J774 Viability Assay; format: cell-based; conditions: Mus musculus, 6 point concentration range 10 μM to 10 nM, n = 3 replicates, mean of 2 independent experiments, 72 hour incubation, read-out: IC50 (1)
Protocol: Potency was assessed using a viability assay based on the survival of the J774 macrophage cell line. Macrophages are closely related to osteoclasts and have been used previously as a model system for osteoclast survival (see, e.g., Luckman et al., 1998, “Heterocycle-containing bisphosphonates cause apoptosis and inhibit bone resorption by preventing protein prenylation: evidence from structure-activity relationships in J774 macrophages,” J. Bone Miner. Res., Vol. 13, pp. 1668-1678). The model is indicative both of effects on bone protection in diseases such as osteoporosis, osteoarthritis and rheumatoid arthritis, and of effects on inflammation since, like osteoclasts, J774 macrophages are dependent for survival on continued NFκB activation.
In vitro potency of test compounds was determined by incubation with J774 macrophages and subsequent determination of cell viability using resazurin.
Resazurin is a redox dye commonly used as an indicator of viability in cultured cells (see, e.g., Anoopkumar-Dukie, 2005, British Journal of Radiology, Vol. 78, pp. 945-947). It is non-toxic to cells and stable in culture medium, allowing continuous measurement of cell proliferation in vitro as either a kinetic or endpoint assay. The assay is based on the ability of viable, metabolically-active cells to reduce resazurin (which is blue and non-fluorescent) to resorufin and dihydroresorufin (which are red and fluorescent) using electrons from reducing species, such as nicotinamide adenine dinucleotide (NADPH) and flavin adenine dinucleotide (FADH). This transformation, from oxidised form to reduced form, can be measured either colorimetrically or fluorometrically. Insults that impair cell viability and proliferation also affects the capacity of cells to reduce resazurin, and the rate of dye reduction is directly proportional to the number of viable cells present.
For fluorescence measurements, 530-560 nm excitation and 590 nm emission wavelengths are typically used. For colorimetric measurements, absorbance at 570 nm (reduced form) and 600 nm (oxidised form) is typically measured. A simple calculation is performed to determine the relative quantities of the two species: a high ratio of resorufin (the reduced form) to resazurin (the oxidised form) is an indicator that cells are proliferating and viable. A low ratio indicates cells that are quiescent or non-viable.
J774 cells were plated at 10^4 cells per well in 100 μL αMEM (α Modified Eagle Medium) in 96-well plates and allowed to adhere overnight. The following day, test compounds were prepared as 100 mM solutions in DMSO. These stock solutions were diluted in DMSO and then diluted 1000× in culture medium (αMEM) before being added directly to the wells so as to give the desired final compound concentration. After a 72 hour incubation at 37° C./5% CO2, resazurin (Alamar Blue, Biosource International) was added to each well (1:10 v/v, 10 μL). The plate was then incubated at 37° C. for 3 hours and fluorescence was measured at 590 nm, with a 25 nm bandwidth.
The average results for each test compound were expressed as a percent (%) of the average control value reflecting cell viability. The average values across the concentrations tested were then plotted and the IC50 for was calculated by fitting the data to a 4-parameter IC50 equation using software from Grafit (Erithacus Software). Each experiment was repeated twice and the data are presented as the mean IC50 from both experiments.

[2] = Rodent pharmacokinetics study; format: in vivo, Sprague-Dawley rats; conditions: rat; for half-life: male, Sprague-Dawley, plasma, elimination phase half-life; for i.v. AUC: intravenous 1 mg/kg; for Bioavail, F: tentative oral bioavailability, F=AUC(p.o.)×Dose(i.v.)/AUC(i.v.)×Dose(p.o.); for p.o. AUC: oral 5 mg/kg in 0.5% CMC/0.1% Tween-80 (HMC-C-01-A in 2% dimethylacetamide/20% hydroxypropyl-β-cyclodextrin)
Protocol: Absorption and metabolic stability were studied using an in vivo pharmacokinetics assay.
Three male Sprague-Dawley rats, aged 8-12 weeks, were dosed with test compounds administered either orally or intravenously (dose level of 1 mg/kg body weight intravenous or 5 mg/kg body weight orally). Test compounds were formulated in 0.5% carboxymethylcellulose (CMC)/0.1% Tween-80 for administration via the oral route, or in 5% DMSO/10% solutol in saline for administration via the intravenous route. For compound HMC-C-01-A the oral administration was formulated in 2% dimethylacetamide/20% hydroxypropyl-β-cyclodextrin in water. Animals were given free access to food throughout the study except for fasting overnight and until 2 hours post dose on the day of dosing.
Blood samples were taken from the retro-orbital plexus at the following time points and placed in microtubes containing 20% K2EDTA solution:
Oral Dosing: predose; 0.25, 0.5, 1, 2, 4, 6, 8, and 24 hours post dose.
Intravenous Dosing: predose; 0.08, 0.25, 0.5, 1, 2, 4, 8, and 24 hours post dose.
Blood samples were centrifuged to obtain plasma, which was transferred to a separate container and frozen at −20° C.
For analysis, samples were thawed at room temperature and prepared by protein precipitation with acetonitrile spiked with internal standard (500 ng/mL glipizide) in the ratio 1:4 with plasma. The samples were then vortexed for 5 minutes and centrifuged for 10 minutes at 20,600×g at 4° C. 100 μL of the supernatant was collected for analysis. The standard samples were prepared similarly, after spiking blank rat plasma samples with 10 μL of analyte.
The pharmacokinetic parameters for the test compounds were calculated by Phoenix WinNonlin version 6.3 (Pharsight Corp, CA) using standard non-compartmental methods. Peak plasma concentrations (Cmax) and time of the peak plasma concentration (Tmax) were the observed values. The area under the plasma concentration-time curve (AUC) was determined by use of the linear trapezoidal rule up to the last measurable concentration (AUClast) and thereafter by extrapolation of the terminal elimination phase to infinity (AUCinf). The terminal elimination rate constant (kel) was determined by regression analysis of the linear terminal portion of the log plasma concentration-time curve. The elimination phase half-life (t1/2) was calculated as 0.693/kel.

J774 macrophages [3] = experiment: Resazurin Macrophage J774 Viability Assay; format: cell-based; conditions: Mus musculus, 12 point concentration range 10 μM to 0.5 nM, n = 4 replicates, mean of 3 independent experiments, 72 hour incubation, read-out: IC50 (2)

| SMILES | IC50 (J774 macrophages [1]) [nM] | half-life [2] [h] | i.v. AUC [2] [ng·min/mL] | Bioavail, F [2] [%] | IC50 (J774 macrophages [3]) [nM] | p.o. AUC [2] [ng·h/mL] |
| --- | --- | --- | --- | --- | --- | --- |
| Cc1cc(S(=O)(=O)NC2CCC(C)(O)CC2)ccc1-c1ccc(F)cc1F (single isomer, unassigned) [REF001, reference compound] | 120 | 7.2 | 963 | 50 | 50 |  |
| C[C@]1(O)CC[C@H](NS(=O)(=O)c2ccc(-c3ccc(F)cc3C(F)(F)F)cc2)CC1 [HMC-C-02-A, 4′-Fluoro-N-((1r,4r)-4-hydroxy-4-methylcyclohexyl)-2′-(trifluoromethyl)biphenyl-4-sulfonamide] | 260 | 3.2 | 546 | 39 | 14700 | 17.8 |
| C[C@]1(O)CC[C@H](NS(=O)(=O)c2ccc(-c3c(F)cc(F)cc3F)cc2)CC1 [HMC-C-03-A, 2′,4′,6′-Trifluoro-N-((1r,4r)-4-hydroxy-4-methylcyclohexyl)biphenyl-4-sulfonamide] | 140 | 2.4 | 1427 | 55 | 410 | 65.2 |
| C[C@]1(O)CC[C@H](NS(=O)(=O)c2ccc(-c3ncc(F)cc3F)cc2)CC1 [HMC-N-02-A, 4-(3,5-Difluoropyridin-2-yl)-N-((1r,4r)-4-hydroxy-4-methylcyclohexyl)benzenesulfonamide] | 180 | 6.3 |  | 43 | 4590 | 55 |
| C[C@]1(O)CC[C@H](NS(=O)(=O)c2ccc(-c3ncc(Cl)cc3Cl)c(F)c2)CC1 [HMC-N-04-A, 4-(3,5-Dichloropyridin-2-yl)-3-fluoro-N-((1r,4r)-4-hydroxy-4-methylcyclohexyl)benzenesulfonamide] | 180 | 2.9 | 1279 | 66 |  | 70 |
| C[C@]1(O)CC[C@H](NS(=O)(=O)c2ccc(-c3ccc(F)cc3F)c(F)c2)CC1 [HMC-C-04-A, 2,2′,4′-Trifluoro-N-((1r,4r)-4-hydroxy-4-methylcyclohexyl)-[1,1′-biphenyl]-4-sulfonamide] |  |  |  |  | 500 |  |
| C[C@]1(O)CC[C@@H](NS(=O)(=O)c2ccc(-c3ncc(Cl)cc3Cl)cc2)CC1 [HMC-N-03-B, 4-(3,5-Dichloropyridin-2-yl)-N-((1s,4s)-4-hydroxy-4-methylcyclohexyl)benzenesulfonamide] |  | 7.4 |  | 84 | 80 | 193 |
| C[C@]1(O)CC[C@@H](NS(=O)(=O)c2ccc(-c3ncc(F)cc3F)c(F)c2)CC1 [HMC-N-01-B, 4-(3,5-Difluoropyridin-2-yl)-3-fluoro-N-((1s,4s)-4-hydroxy-4-methylcyclohexyl)benzenesulfonamide] |  | 9.1 | 2824 | 60 | 140 | 141 |
| C[C@]1(O)CC[C@@H](NS(=O)(=O)c2ccc(-c3ccc(F)cc3F)c(F)c2)CC1 [HMC-C-04-B, 2,2′,4′-Trifluoro-N-((1s,4s)-4-hydroxy-4-methylcyclohexyl)-[1,1′-biphenyl]-4-sulfonamide] |  | 5.5 |  | 59 | 60 | 156 |
| Cc1cc(S(=O)(=O)N[C@H]2CC[C@H](O)CC2)ccc1-c1ccc(F)cc1F [ABD735] | 100 | 3.8 | 1081 | 83 |  |  |
| C[C@]1(O)CC[C@H](NS(=O)(=O)c2ccc(-c3ccc(F)cc3F)cc2)CC1 [ABD900, reference compound] | 560 |  |  |  |  |  |
| O=S(=O)(N[C@H]1CC[C@H](O)CC1)c1ccc(-c2ncc(Cl)cc2Cl)cc1 [ABD836, reference compound] | 280 | 5.3 | 2142 | 55 |  | 98.8 |
| C[C@]1(O)CC[C@@H](NS(=O)(=O)c2ccc(-c3c(F)cc(F)cc3F)cc2)CC1 [HMC-C-03-B, 2′,4′,6′-Trifluoro-N-((1s,4s)-4-hydroxy-4-methylcyclohexyl)-[1,1′-biphenyl]-4-sulfonamide] |  | 8.3 |  | 116 | 200 | 157 |
| C[C@]1(O)CC[C@@H](NS(=O)(=O)c2ccc(-c3ccc(Cl)cc3C#N)cc2)CC1 [HMC-C-01-B, 4′-Chloro-2′-cyano-N-((1s,4s)-4-hydroxy-4-methylcyclohexyl)-[1,1′-biphenyl]-4-sulfonamide] |  | 5.7 | 1539 | 67 | 160 | 85.3 |
| C[C@]1(O)CC[C@@H](NS(=O)(=O)c2ccc(-c3ncc(F)cc3F)cc2)CC1 [HMC-N-02-B, 4-(3,5-Difluoropyridin-2-yl)-N-((1s,4s)-4-hydroxy-4-methylcyclohexyl)benzenesulfonamide] |  | 6 | 1931 | 66 | 360 | 107 |
| C[C@]1(O)CC[C@H](NS(=O)(=O)c2ccc(-c3ccc(Cl)cc3C#N)cc2)CC1 [HMC-C-01-A, 4′-Chloro-2′-cyano-N-((1r,4r)-4-hydroxy-4-methylcyclohexyl)biphenyl-4-sulfonamide] | 130 | 6.2 | 900 | 89 | 1890 | 66.7 |
| C[C@]1(O)CC[C@@H](NS(=O)(=O)c2ccc(-c3ccc(F)cc3F)cc2)CC1 [ABD899, reference compound] | 80 | 10.8 | 2133 | 50 |  |  |
| C[C@]1(O)CC[C@@H](NS(=O)(=O)c2ccc(-c3ccc(F)cc3C(F)(F)F)cc2)CC1 [HMC-C-02-B, 4′-Fluoro-N-((1s,4s)-4-hydroxy-4-methylcyclohexyl)-2′-(trifluoromethyl)-[1,1′-biphenyl]-4-sulfonamide] |  |  |  |  | 1740 |  |
